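Values below derive from 48-hour exposures of cells grown in 96-well plates, with endpoints linearly interpolated between the two concentrations bracketing the appropriate inhibition level. Here, GI50 denotes the concentration required for 50% inhibition of growth. TGI is the concentration that stops growth completely.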
What was measured:
Assay in all cases: DTP human tumour cell line panel, 48 h
A498 renal = test system: A498 renal
A549 NSCLC = test system: A549 NSCLC
HL-60(TB) leukemia = test system: HL-60(TB) leukemia
HOP-62 NSCLC = test system: HOP-62 NSCLC
HT29 colon = test system: HT29 colon
NCI-H460 lung = test system: NCI-H460 lung
NCI-H522 lung = test system: NCI-H522 lung
SK-MEL-28 melanoma = test system: SK-MEL-28 melanoma
SK-MEL-5 melanoma = test system: SK-MEL-5 melanoma
SN12C renal = test system: SN12C renal

| Structure (SMILES) | GI50 (A498 renal) | TGI (A498 renal) | GI50 (A549 NSCLC) | TGI (A549 NSCLC) | GI50 (HL-60(TB) leukemia) | TGI (HL-60(TB) leukemia) | GI50 (HOP-62 NSCLC) | TGI (HOP-62 NSCLC) | TGI (HT29 colon) | GI50 (NCI-H460 lung) | TGI (NCI-H460 lung) | GI50 (NCI-H522 lung) | TGI (NCI-H522 lung) | GI50 (SK-MEL-28 melanoma) | TGI (SK-MEL-28 melanoma) | GI50 (SK-MEL-5 melanoma) | TGI (SK-MEL-5 melanoma) | GI50 (SN12C renal) | TGI (SN12C renal) | GI50 (HT29 colon) |
| --- | --- | --- | --- | --- | --- | --- | --- | --- | --- | --- | --- | --- | --- | --- | --- | --- | --- | --- | --- | --- |
| CCc1cc(Nc2nccc(-c3c(-c4ccc(OC)c(C(=O)Nc5c(F)cccc5F)c4)nc4ccccn34)n2)c(OC)cc1N1CCC(N2CCN(S(C)(=O)=O)CC2)CC1 | > 100 µM | > 100 µM | > 48.3 µM | > 100 µM | > 100 µM | > 100 µM | > 100 µM | > 100 µM | > 100 µM | > 71.7 µM | > 100 µM | > 100 µM | > 100 µM | > 100 µM | > 100 µM | > 64.8 µM | > 100 µM | > 100 µM | > 100 µM |  |
| CC[C@@]1(O)C(=O)N(CCN(C)C)Cc2c1cc1n(c2=O)Cc2cc3ccccc3nc2-1 | 56.2 µM | > 100 µM | 26 µM | > 100 µM | 5.4 µM | > 100 µM | 5.21 µM | > 100 µM | > 100 µM | 1.82 µM | > 83.1 µM | 7.05 µM | > 89 µM | 34.7 µM | > 92.8 µM | > 25.2 µM | > 56.1 µM | 8.85 µM | > 100 µM | 24.6 µM |
| Cc1cncc2cccc(S(=O)(=O)N3CCCNC[C@@H]3C)c12 | 1.61 µM | 17.7 µM | 14.6 µM | > 100 µM | 36.2 µM | 100 µM | 11.5 µM | > 100 µM | > 100 µM | 8.81 µM | > 100 µM | > 23.1 µM | > 100 µM | > 100 µM | > 100 µM | > 64.1 µM | > 100 µM | 24.8 µM | > 100 µM | 29.3 µM |
| COc1ccc(C2C3=C(COC3=O)N(CCO)c3cc4c(cc32)CCC4)cc1OC (stereo not drawn) | 0.242 µM | > 20 µM | 1.13 µM | > 50 µM | 0.328 µM | > 10.5 µM | 1.08 µM | > 50 µM | > 10.3 µM | 0.336 µM | > 29.5 µM | 0.514 µM |  | 0.697 µM | > 50 µM | 0.246 µM | > 50 µM | 3.41 µM | > 50 µM | 0.62 µM |
| CCN(Cc1cccc(C)c1)c1ccc(CO)c(Cl)c1 | 0.0362 µM | 0.162 µM | 4.77 µM | 20.7 µM | 14.1 µM | 41.1 µM | 2.55 µM | 22 µM | 16.2 µM | 0.513 µM | 14.5 µM | 13.2 µM | 27.5 µM | 15.1 µM | 39.5 µM | 9.25 µM | 22 µM | 12.1 µM | 26.3 µM | 4.12 µM |
| CCN(CC)CCn1nc2c3c(cccc3c1=O)-c1ccccc1-2 | 2.98 µM | 9.95 µM | 1.05 µM | 19.8 µM | 1.8 µM | 9.22 µM | 2.18 µM | 15.9 µM | 13.2 µM | 1.49 µM | > 50 µM | 2.21 µM | 9.84 µM | 2.56 µM | 15.6 µM | 1.51 µM | 4.08 µM | 2.07 µM | > 50 µM | 1.89 µM |
| C/C(=C\COc1ccc2ccc(=O)oc2c1)CCC(=O)C(C)(C)O |  | 64.2 µM |  | > 100 µM |  | 45.7 µM |  | > 100 µM | 52.7 µM |  | > 100 µM |  | 43.6 µM |  | > 100 µM |  | 30.2 µM |  | 58.4 µM |  |

Source: PubChem BioAssay (NCI)
